Test results from patent publication US20230192717A1, “COMPOSITIONS AND METHODS OF MODULATING SHORT-CHAIN DEHYDROGENASE ACTIVITY” (RODEO THERAPEUTICS CORPORATION, priority 2020, published 2023).
pIC50: −log10 of the molar value.

Molecular target: T1, recombinant 15-PGDH (Homo sapiens, UniProt P15428)
T1 sequence (P15428 1-266): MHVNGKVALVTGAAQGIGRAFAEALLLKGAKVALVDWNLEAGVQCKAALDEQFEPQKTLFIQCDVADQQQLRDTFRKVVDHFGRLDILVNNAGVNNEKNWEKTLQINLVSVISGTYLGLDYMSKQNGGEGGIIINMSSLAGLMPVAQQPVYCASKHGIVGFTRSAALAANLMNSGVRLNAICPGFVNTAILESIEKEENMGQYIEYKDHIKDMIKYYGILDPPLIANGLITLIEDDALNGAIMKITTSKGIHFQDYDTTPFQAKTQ
Assay: inhibition of enzymatic activity of recombinant 15-PGDH in vitro
Assay type: biochemical
Details: recombinant human 15-PGDH
From the text: The Recombinant 15-PGDH is human unless otherwise specified.

Row | SMILES | pIC50
1 | COCC[S+]([O-])c1sc2nc(-c3ccc4nccnc4c3)cc(C(C)C)c2c1N (single isomer, unassigned) [Compound 25, 2-[2-methoxyethanesulfinyl]-4-(propan-2-yl)-6-(quinoxalin-6-yl)thieno[2,3-b]pyridin-3-amine] | < 8.00
2 | COCC[S@@+]([O-])c1sc2nc(-c3cnc(N)nc3)cc(C(C)C)c2c1N (stereo in doubt) [Compound 18, 5-{3-amino-2-[2-methoxyethanesulfinyl]-4-(propan-2-yl)thieno[2,3-b]pyridin-6-yl}pyrimidin-2-amine] | > 8.60
3 | COCC[S@+]([O-])c1sc2nc(-c3cnc(N)nc3)cc(C(C)C)c2c1N (stereo in doubt) [Compound 19, 5-{3-amino-2-[2-methoxyethanesulfinyl]-4-(propan-2-yl)thieno[2,3-b]pyridin-6-yl}pyrimidin-2-amine] | < 8.00
4 | CNc1ncc(-c2cc(C(C)C)c3c(N)c([S+]([O-])CCOC)sc3n2)cn1 (stereo in doubt) [Compound 23, 5-{3-amino-2-[(R)-2-methoxyethanesulfinyl]-4-(propan-2-yl)thieno[2,3-b]pyridin-6-yl}-N-methylpyrimidin-2-amine] | < 8.00
5 | COCC[S@@+]([O-])c1sc2nc(-c3ccc4nccnc4c3)cc(C(C)C)c2c1N (stereo in doubt) [Compound 24, 2-[2-methoxyethanesulfinyl]-4-(propan-2-yl)-6-(quinoxalin-6-yl)thieno[2,3-b]pyridin-3-amine] | > 8.60
6 | Cn1nccc1-c1cc(-c2cnc3ncccc3c2)nc2sc([S@+]([O-])C3CCC3)c(N)c12 (stereo in doubt) [Compound 26, 2-(cyclobutanesulfinyl)-4-(1-methyl-1H-pyrazol-5-yl)-6-(1,8-naphthyridin-3-yl)thieno[2,3-b]pyridin-3-amine] | > 8.60
7 | Cn1nccc1-c1cc(-c2cnc3ncccc3c2)nc2sc([S@@+]([O-])C3CCC3)c(N)c12 (stereo in doubt) [Compound 27, 2-(cyclobutanesulfinyl)-4-(1-methyl-1H-pyrazol-5-yl)-6-(1,8-naphthyridin-3-yl)thieno[2,3-b]pyridin-3-amine] | < 8.00
8 | Cn1nccc1-c1cc(-c2ccc3nccnc3c2)nc2sc([S@+]([O-])C3CCC3)c(N)c12 [Compound 1, (R)-2-(cyclobutylsulfinyl)-4-(1-methyl-1H-pyrazol-5-yl)-6-(quinoxalin-6-yl)thieno[2,3-b]pyridin-3-amine] | > 8.60
9 | Cn1nccc1-c1cc(-c2ccc3cncnc3c2)nc2sc([S@+]([O-])C3CCC3)c(N)c12 [Compound 2, 2-[(R)-cyclobutanesulfinyl]-4-(1-methyl-1H-pyrazol-5-yl)-6-(quinazolin-7-yl)thieno[2,3-b]pyridin-3-amine] | > 8.60
10 | COCC[S+]([O-])c1sc2nc(-c3cnc4cccnc4c3)cc(-c3ccnn3C)c2c1N (stereo not shown) [Compound 3, 2-(2-methoxyethanesulfinyl)-4-(1-methyl-1H-pyrazol-5-yl)-6-(1,5-naphthyridin-3-yl)thieno[2,3-b]pyridin-3-amine] | > 8.60
11 | COCC[S@@+]([O-])c1sc2nc(-c3ccc4nccnc4c3)cc(-c3ccnn3C)c2c1N [Compound 4, 2-[(R)-2-methoxyethanesulfinyl]-4-(1-methyl-1H-pyrazol-5-yl)-6-(quinoxalin-6-yl)thieno[2,3-b]pyridin-3-amine] | > 8.60
12 | Cn1nccc1-c1cc(-c2cnc3ncccn23)nc2sc([S@+]([O-])C3CCC3)c(N)c12 [Compound 5, 2-[(R)-cyclobutanesulfinyl]-6-{imidazo[1,2-a]pyrimidin-3-yl}-4-(1-methyl-1H-pyrazol-5-yl)thieno[2,3-b]pyridin-3-amine] | 8.00 to 8.60
13 | COCC[S+]([O-])c1sc2nc(-c3cnc4ncccc4c3)cc(C3CCC3)c2c1N (stereo not shown) [Compound 6, 4-cyclobutyl-2-(2-methoxyethanesulfinyl)-6-(1,8-naphthyridin-3-yl)thieno[2,3-b]pyridin-3-amine] | > 8.60
